In patent US6355799B1, “Substituted benzene compounds, process for their preparation, and herbicidal and defoliant compositions containing them” (ISK Americas Incorporated, priority 1997, dated 2002):

Columns and labels:
Format in all cases: in vivo
[1] = system: upland rice (Oryza sp., var. Tebonnet, RICE); experiment: Post-emerge test, crop safety; settings: post-emerge, 14 days after application, rating scale 0-100
Summary of the method: (§1)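 Rating: 0–100 visual injury, 14 DAA. Application: acetone, 187 l/ha, 15–1000 g ai/ha, flat-fan track sprayer with nozzle 40–45 cm above soil or canopy. Post-emerge runs used 0.25% v/v surfactant on 2–3 leaf plants.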

[2] = system: field corn (Zea mays L., var. Dekalb 535, CORN); experiment: Post-emerge test, crop safety; settings: post-emerge, 14 days after application, rating scale 0-100
Summary of the method: as §1

[3] = system: sicklepod (Cassia obtusifolia, CASOB); experiment: Post-emerge test, greenhouse herbicide activity screening; settings: post-emerge, 14 days after application, rating scale 0-100
Summary of the method: (§2)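 Each test used a mechanized track sprayer delivering 187 l/ha of acetone solution at 15–1000 g ai/ha. Post-emerge foliage at 2–3 leaves was treated with added 0.25% v/v non-ionic surfactant and bottom-watered only. Injury was assessed on day 14, where 100 means total kill.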

[4] = system: lambsquarters (Chenopodium album, CHEAL); experiment: as above; settings: post-emerge, 14 days after application, rating scale 0-100
Summary of the method: as §2

[5] = system: green foxtail (Setaria viridis, SETVI); experiment: as above; settings: post-emerge, 14 days after application, rating scale 0-100
Summary of the method: as §2

[6] = system: redroot pigweed (Amaranthus retroflexus, AMARE); experiment: as above; settings: post-emerge, 14 days after application, rating scale 0-100
Summary of the method: as §2

[7] = system: johnsongrass (Sorghum halepense, SORHA); experiment: as above; settings: post-emerge, 14 days after application, rating scale 0-100
Summary of the method: as §2

[8] = system: large crabgrass (Digitaria sanguinalis, DIGSA); experiment: as above; settings: post-emerge, 14 days after application, rating scale 0-100
Summary of the method: as §2

[9] = system: velvetleaf (Abutilon theophrasti, ABUTH); experiment: as above; settings: post-emerge, 14 days after application, rating scale 0-100
Summary of the method: as §2

[10] = system: ivyleaf morningglory (Ipomoea hederacea, IPOHE); experiment: as above; settings: post-emerge, 14 days after application, rating scale 0-100
Summary of the method: as §2

[11] = system: barnyardgrass (Echinochloa crus-galli, ECHCG); experiment: as above; settings: post-emerge, 14 days after application, rating scale 0-100
Summary of the method: as §2

[12] = system: sicklepod (Cassia obtusifolia, CASOB); experiment: Pre-emerge test, greenhouse herbicide activity screening; settings: pre-emerge, 14 days after application, scale 0-100
Summary of the method: (§3)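 Compounds in acetone were track-sprayed at 15–1000 g ai/ha: pre-emergence onto soil sown the previous day, then top-watered to incorporate and later bottom-watered; post-emergence onto 2–3 leaf plants with 0.25% v/v surfactant, bottom-watered only. Ratings on a 0–100 phytotoxicity scale were taken at day 14.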

[13] = system: lambsquarters (Chenopodium album, CHEAL); experiment: as above; settings: pre-emerge, 14 days after application, scale 0-100
Summary of the method: as §3

[14] = system: green foxtail (Setaria viridis, SETVI); experiment: as above; settings: pre-emerge, 14 days after application, scale 0-100
Summary of the method: as §3

[15] = system: johnsongrass (Sorghum halepense, SORHA); experiment: as above; settings: pre-emerge, 14 days after application, scale 0-100
Summary of the method: as §3

[16] = system: large crabgrass (Digitaria sanguinalis, DIGSA); experiment: as above; settings: pre-emerge, 14 days after application, scale 0-100
Summary of the method: as §3

[17] = system: velvetleaf (Abutilon theophrasti, ABUTH); experiment: as above; settings: pre-emerge, 14 days after application, scale 0-100
Summary of the method: as §3

[18] = system: ivyleaf morningglory (Ipomoea hederacea, IPOHE); experiment: as above; settings: pre-emerge, 14 days after application, scale 0-100
Summary of the method: as §3

[19] = system: barnyardgrass (Echinochloa crus-galli, ECHCG); experiment: as above; settings: pre-emerge, 14 days after application, scale 0-100
Summary of the method: as §3

[20] = system: redroot pigweed (Amaranthus retroflexus, AMARE); experiment: as above; settings: pre-emerge, 14 days after application, scale 0-100
Summary of the method: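 Compounds in acetone were track-sprayed at 15-1000 g ai/ha (187 l/ha) on sandy loam pots: pre-emerge one day after seeding, post-emerge at 2-3 leaf stage with 0.25% v/v non-ionic surfactant. Phytotoxicity was rated 14 days later on a 0 (no damage) to 100 (complete death) scale.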

[21] = system: upland rice (Oryza sp., var. Tebonnet, RICE); experiment: Pre-emerge test, crop safety; settings: pre-emerge, 14 days after application, scale 0-100
Summary of the method: (§4)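 Sandy loam pots; pre-emerge: sown 1 d pre-spray, surface-watered after, then bottom-watered. Post-emerge: sown 8–21 d before, 2–3 leaf stage, + 0.25% v/v NIS, bottom-watered. Acetone, 187 l/ha track spray, 15–1000 g ai/ha. 0–100 injury score, day 14.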

[22] = system: field corn (Zea mays L., var. Dekalb 535, CORN); experiment: Pre-emerge test, crop safety; settings: pre-emerge, 14 days after application, scale 0-100
Summary of the method: as §4

CCOC(=O)C(C)SCC(=O)Nc1c(OC)c(Cl)cc(F)c1-n1c(=O)cc(C(F)(F)F)n(C)c1=O (centres unmarked) [2-171]
RICE phytotoxicity rating (crop damage) ([1]; 63 g ai/ha): 0
RICE phytotoxicity rating (crop damage) ([1]; 250 g ai/ha): 10
CORN phytotoxicity rating (crop damage) ([2]; 63 g ai/ha): 0
CORN phytotoxicity rating (crop damage) ([2]; 250 g ai/ha): 10
CASOB phytotoxicity rating ([3]; 63 g ai/ha): 30
CASOB phytotoxicity rating ([3]; 250 g ai/ha): 40
CHEAL phytotoxicity rating ([4]; 63 g ai/ha): 40
CHEAL phytotoxicity rating ([4]; 250 g ai/ha): 90
SETVI phytotoxicity rating ([5]; 63 g ai/ha): 0
SETVI phytotoxicity rating ([5]; 250 g ai/ha): 10
AMARE phytotoxicity rating ([6]; 63 g ai/ha): 30
AMARE phytotoxicity rating ([6]; 250 g ai/ha): 50
SORHA phytotoxicity rating ([7]; 63 g ai/ha): 0
SORHA phytotoxicity rating ([7]; 250 g ai/ha): 10
DIGSA phytotoxicity rating ([8]; 63 g ai/ha): 0
DIGSA phytotoxicity rating ([8]; 250 g ai/ha): 10
ABUTH phytotoxicity rating ([9]; 63 g ai/ha): 60
ABUTH phytotoxicity rating ([9]; 250 g ai/ha): 100
IPOHE phytotoxicity rating ([10]; 63 g ai/ha): 60
IPOHE phytotoxicity rating ([10]; 250 g ai/ha): 100
ECHCG phytotoxicity rating ([11]; 63 g ai/ha): 0
ECHCG phytotoxicity rating ([11]; 250 g ai/ha): 0
phytotoxicity rating CASOB ([12]; 63 g ai/ha): 10
phytotoxicity rating CASOB ([12]; 250 g ai/ha): 30
phytotoxicity rating CHEAL ([13]; 63 g ai/ha): 70
phytotoxicity rating CHEAL ([13]; 250 g ai/ha): 100
phytotoxicity rating SETVI ([14]; 63 g ai/ha): 30
phytotoxicity rating SETVI ([14]; 250 g ai/ha): 90
phytotoxicity rating SORHA ([15]; 63 g ai/ha): 10
phytotoxicity rating SORHA ([15]; 250 g ai/ha): 30
phytotoxicity rating DIGSA ([16]; 63 g ai/ha): 20
phytotoxicity rating DIGSA ([16]; 250 g ai/ha): 80
phytotoxicity rating ABUTH ([17]; 63 g ai/ha): 90
phytotoxicity rating ABUTH ([17]; 250 g ai/ha): 100
phytotoxicity rating IPOHE ([18]; 63 g ai/ha): 10
phytotoxicity rating IPOHE ([18]; 250 g ai/ha): 60
phytotoxicity rating ECHCG ([19]; 63 g ai/ha): 0
phytotoxicity rating ECHCG ([19]; 250 g ai/ha): 10
phytotoxicity rating AMARE ([20]; 63 g ai/ha): 50
phytotoxicity rating AMARE ([20]; 250 g ai/ha): 100
phytotoxicity rating RICE (crop damage) ([21]; 63 g ai/ha): 0
phytotoxicity rating RICE (crop damage) ([21]; 250 g ai/ha): 10
phytotoxicity rating CORN (crop damage) ([22]; 63 g ai/ha): 0
phytotoxicity rating CORN (crop damage) ([22]; 250 g ai/ha): 0
